Measurements as given in ChEMBL document CHEMBL3808371, “Design, synthesis and biological evaluation of diaziridinyl quinone isoxazole hybrids” (Eur J Med Chem, 2016).
In brackets after ≈: the same amount, converted by molar mass. Activity calls are given as the source filed them. The calls are words filed in the database; no cut-off is given here.

What was measured:
Staphylococcus aureus [1] = experiment: Antimicrobial activity against Staphylococcus aureus MLS16 MTCC 2940 after 24 hrs by well diffusion method; format: functional; conditions: MLS16 MTCC 2940, 24 h
Staphylococcus aureus [2] = experiment: Antimicrobial activity against Staphylococcus aureus MTCC 96 after 24 hrs by well diffusion method; format: functional; conditions: MTCC 96, 24 h
[3] = Cytotoxicity against human PC3 cells after 72 hrs by XTT assay; format: functional, cell-based; conditions: PC-3, 72 h
Candida albicans = experiment: Antimicrobial activity against Candida albicans MTCC 3017 after 24 hrs by well diffusion method; format: functional
Staphylococcus aureus [4] = experiment: Bactericidal activity against Staphylococcus aureus MLS16 MTCC 2940 after 24 hrs by serial dilution method; format: functional; conditions: MLS16 MTCC 2940, 24 h
Staphylococcus aureus [5] = experiment: Bactericidal activity against Staphylococcus aureus MTCC 96 after 24 hrs by serial dilution method; format: functional; conditions: MTCC 96, 24 h
A549 = experiment: Cytotoxicity against human A549 cells after 72 hrs by XTT assay; format: functional, cell-based; conditions: A549, 72 h
Bacillus subtilis [6] = experiment: Antimicrobial activity against Bacillus subtilis MTCC 121 after 24 hrs by well diffusion method; format: functional; conditions: MTCC 121, 24 h
Escherichia coli = experiment: Antimicrobial activity against Escherichia coli MTCC 739 after 24 hrs by well diffusion method; format: functional; conditions: MTCC 739, 24 h
Raoultella planticola [7] = experiment: Bactericidal activity against Klebsiella planticola MTCC 530 after 24 hrs by serial dilution method; format: functional; conditions: MTCC 530, 24 h
Raoultella planticola [8] = experiment: Antimicrobial activity against Klebsiella planticola MTCC 530 after 24 hrs by well diffusion method; format: functional; conditions: MTCC 530, 24 h
Micrococcus luteus [9] = experiment: Bactericidal activity against Micrococcus luteus MTCC 2470 after 24 hrs by serial dilution method; format: functional; conditions: MTCC 2470, 24 h
Micrococcus luteus [10] = experiment: Antimicrobial activity against Micrococcus luteus MTCC 2470 after 24 hrs by well diffusion method; format: functional; conditions: MTCC 2470, 24 h
Bacillus subtilis [11] = experiment: Bactericidal activity against Bacillus subtilis MTCC 121 after 24 hrs by serial dilution method; format: functional; conditions: MTCC 121, 24 h
Pseudomonas aeruginosa = experiment: Antimicrobial activity against Pseudomonas aeruginosa MTCC 2453 after 24 hrs by well diffusion method; format: functional; conditions: MTCC 2453, 24 h
Raoultella planticola [12] = experiment: Antibiofilm activity against Klebsiella planticola MTCC 530 after 24 hrs by crystal violet staining based assay; format: functional, organism-based; conditions: MTCC 530, 24 h
Micrococcus luteus [13] = experiment: Antibiofilm activity against Micrococcus luteus MTCC 2470 after 24 hrs by crystal violet staining based assay; format: functional, organism-based; conditions: MTCC 2470, 24 h
Staphylococcus aureus [14] = experiment: Antibiofilm activity against Staphylococcus aureus MTCC 96 after 24 hrs by crystal violet staining based assay; format: functional, organism-based; conditions: MTCC 96, 24 h
Bacillus subtilis [15] = experiment: Antibiofilm activity against Bacillus subtilis MTCC 121 after 24 hrs by crystal violet staining based assay; format: functional, organism-based; conditions: MTCC 121, 24 h
Staphylococcus aureus [16] = experiment: Antibiofilm activity against Staphylococcus aureus MLS16 MTCC 2940 after 24 hrs by crystal violet staining based assay; format: functional, organism-based; conditions: MLS16 MTCC 2940, 24 h

Compound `CCN(CC)C(=O)c1ccc(-c2cc(C3=C(N4CC4)C(=O)C=C(N4CC4)C3=O)no2)s1` has an MIC (Staphylococcus aureus [1]) of 7.8 µg/mL (≈ 17.8 µM), an MIC (Staphylococcus aureus [2]) of 7.8 µg/mL (≈ 17.8 µM) and an IC50 [3] of 0.5 µM. It also gave an MIC (Candida albicans; MTCC 3017, 24 h) of 15.6 µg/mL (≈ 35.6 µM), an MBC (Staphylococcus aureus [4]) of 31.2 µg/mL (≈ 71.2 µM) and an MBC (Staphylococcus aureus [5]) of 15.6 µg/mL (≈ 35.6 µM). For the same compound, the IC50 (A549) was 0.9 µM, the MIC (Bacillus subtilis [6]) was 7.8 µg/mL (≈ 17.8 µM) and the MIC (Escherichia coli) was greater than 125 µg/mL. For the same compound, the MBC (Raoultella planticola [7]) was 62.5 µg/mL (≈ 143 µM), the MIC (Raoultella planticola [8]) was 15.6 µg/mL (≈ 35.6 µM) and the MBC (Micrococcus luteus [9]) was 62.5 µg/mL (≈ 143 µM). The MIC (Micrococcus luteus [10]) was 15.6 µg/mL (≈ 35.6 µM), the MBC (Bacillus subtilis [11]) was 31.2 µg/mL (≈ 71.2 µM) and the MIC (Pseudomonas aeruginosa) was greater than 125 µg/mL.
`COc1ccc(OC)c(-c2cc(-c3ccc(C(=O)N4CCC(C(F)(F)F)CC4)s3)on2)c1` gave an IC50 [3] greater than 30 µM and an IC50 (A549) greater than 30 µM.
`CN(Cc1ccccc1)C(=O)c1ccc(-c2cc(C3=CC(=O)C=CC3=O)no2)s1` showed an IC50 [3] of 11 µM and an IC50 (A549) greater than 30 µM.
`O=C1C=CC(=O)C(c2cc(-c3ccc(C(=O)N4CCCCC4)s3)on2)=C1` gave an IC50 [3] greater than 30 µM and an IC50 (A549) greater than 30 µM.
Compound `CCN(CC)C(=O)c1ccc(-c2cc(-c3cc(OC)ccc3OC)no2)s1` has an IC50 [3] greater than 30 µM and an IC50 (A549) of 11 µM.
`COc1ccc(CN(C)C(=O)c2ccc(-c3cc(-c4cc(OC)ccc4OC)no3)s2)cc1` gave an IC50 [3] greater than 30 µM and an IC50 (A549) greater than 30 µM.
Compound `O=C1C=CC(=O)C(c2cc(-c3ccc(C(=O)N4CCCC4)s3)on2)=C1` has an IC50 [3] of less than 30 µM and an IC50 (A549) greater than 30 µM.
Work on `O=C1C=CC(=O)C(c2cc(-c3ccc(C(=O)N4CCC(C(F)(F)F)CC4)s3)on2)=C1` yielded an IC50 [3] greater than 30 µM and an IC50 (A549) greater than 30 µM.
`CN(Cc1ccc(F)cc1)C(=O)c1ccc(-c2cc(C3=CC(=O)C=CC3=O)no2)s1` showed an IC50 [3] greater than 30 µM and an IC50 (A549) greater than 30 µM.
`CCCN(C)C(=O)c1ccc(-c2cc(C3=CC(=O)C=CC3=O)no2)s1` gave an IC50 [3] of less than 30 µM and an IC50 (A549) greater than 30 µM.
For `O=C(O)c1cn(C2CC2)c2cc(N3CCNCC3)c(F)cc2c1=O` [CIPROFLOXACIN], the MIC (Staphylococcus aureus [1]) was 0.9 µg/mL (≈ 2.72 µM), the MIC (Staphylococcus aureus [2]) was 0.9 µg/mL (≈ 2.72 µM) and the MIC (Candida albicans) was “inactive”. For the same compound, the IC50 (Raoultella planticola [12]) was 0.6 µM, the MBC (Staphylococcus aureus [4]) was 1.9 µg/mL (≈ 5.73 µM) and the MBC (Staphylococcus aureus [5]) was 0.9 µg/mL (≈ 2.72 µM). It also gave an MIC (Bacillus subtilis [6]) of 0.9 µg/mL (≈ 2.72 µM), an MIC (Escherichia coli) of 0.9 µg/mL (≈ 2.72 µM) and an IC50 (Micrococcus luteus [13]) of 0.8 µM. It also gave an MBC (Raoultella planticola [7]) of 1.9 µg/mL (≈ 5.73 µM), an MIC (Raoultella planticola [8]) of 0.9 µg/mL (≈ 2.72 µM) and an MBC (Micrococcus luteus [9]) of 0.9 µg/mL (≈ 2.72 µM). It also gave an MIC (Micrococcus luteus [10]) of 0.9 µg/mL (≈ 2.72 µM), an MBC (Bacillus subtilis [11]) of 1.9 µg/mL (≈ 5.73 µM) and an IC50 (Staphylococcus aureus [14]) of 0.7 µM. The MIC (Pseudomonas aeruginosa) was 0.9 µg/mL (≈ 2.72 µM).
With `CN(C)C(=O)c1ccc(-c2cc(C3=C(N4CC4)C(=O)C=C(N4CC4)C3=O)no2)s1` the MIC (Staphylococcus aureus [1]) was 15.6 µg/mL (≈ 38 µM), the MIC (Staphylococcus aureus [2]) was 15.6 µg/mL (≈ 38 µM) and the IC50 [3] was greater than 30 µM. For the same compound, the MIC (Candida albicans; MTCC 3017, 24 h) was 15.6 µg/mL (≈ 38 µM), the IC50 (Raoultella planticola [12]) was 6.1 µM and the MBC (Staphylococcus aureus [4]) was 31.2 µg/mL (≈ 76 µM). It also gave an MBC (Staphylococcus aureus [5]) of 31.2 µg/mL (≈ 76 µM), an IC50 (Bacillus subtilis [15]) of 2.2 µM and an IC50 (A549) of 1.5 µM. For the same compound, the MIC (Bacillus subtilis [6]) was 3.9 µg/mL (≈ 9.5 µM), the MIC (Escherichia coli) was greater than 125 µg/mL and the IC50 (Micrococcus luteus [13]) was 38.9 µM. For the same compound, the MBC (Raoultella planticola [7]) was 31.2 µg/mL (≈ 76 µM), the MIC (Raoultella planticola [8]) was 7.8 µg/mL (≈ 19 µM) and the MBC (Micrococcus luteus [9]) was 125 µg/mL (≈ 305 µM). It also gave an IC50 (Staphylococcus aureus [16]) of 10.1 µM, an MIC (Micrococcus luteus [10]) of 62.5 µg/mL (≈ 152 µM) and an MBC (Bacillus subtilis [11]) of 7.8 µg/mL (≈ 19 µM). The IC50 (Staphylococcus aureus [14]) was 9.8 µM and the MIC (Pseudomonas aeruginosa) was greater than 125 µg/mL.
For `CN(Cc1ccccc1)C(=O)c1ccc(-c2cc(C3=C(N4CC4)C(=O)C=C(N4CC4)C3=O)no2)s1`, the MIC (Staphylococcus aureus [1]) was 62.5 µg/mL (≈ 128 µM), the MIC (Staphylococcus aureus [2]) was 31.2 µg/mL (≈ 64.1 µM) and the IC50 [3] was 1.2 µM. It also gave an MIC (Candida albicans; MTCC 3017, 24 h) greater than 125 µg/mL, an MBC (Staphylococcus aureus [4]) of 125 µg/mL (≈ 257 µM) and an MBC (Staphylococcus aureus [5]) of 62.5 µg/mL (≈ 128 µM). It also gave an IC50 (A549) of 7.3 µM, an MIC (Bacillus subtilis [6]) of 31.2 µg/mL (≈ 64.1 µM) and an MIC (Escherichia coli) greater than 125 µg/mL. The MBC (Raoultella planticola [7]) was greater than 125 µg/mL, the MIC (Raoultella planticola [8]) was greater than 125 µg/mL and the MBC (Micrococcus luteus [9]) was 62.5 µg/mL (≈ 128 µM). The MIC (Micrococcus luteus [10]) was 15.6 µg/mL (≈ 32.1 µM), the MBC (Bacillus subtilis [11]) was 125 µg/mL (≈ 257 µM) and the MIC (Pseudomonas aeruginosa) was greater than 125 µg/mL.
`COc1ccc(OC)c(-c2cc(-c3ccc(C(=O)N(C)Cc4ccccc4)s3)on2)c1` gave an IC50 [3] greater than 30 µM and an IC50 (A549) greater than 30 µM.
